Here are results for nine compounds from PubChem BioAssay (NCI).

Some test systems named below: A498 renal; CCRF-CEM leukemia; LOX IMVI melanoma; MOLT-4 leukemia; NCI-H226 lung; NCI-H23 lung; RXF 393 renal; SK-MEL-28 melanoma; T-47D breast; UO-31 renal.
Holding throughout (experiment): NCI-60 cell line screen, 48 h

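A five-concentration, 48-hour dose response in 96-well plates underlies each endpoint, interpolated linearly between surrounding concentrations. GI50 = concentration required for 50% inhibition of growth. TGI is the concentration that stops growth completely.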

For the compound `CN(C)C/C=C/C(=O)Nc1cc2c(Nc3cccc(Cl)c3F)ncnc2cc1OCCOC(F)F`, the GI50 was 0.423 µM in the assay on A498 renal; 2.83 µM in the assay with CCRF-CEM leukemia; 1.62 µM in the assay on LOX IMVI melanoma; 1.42 µM with MOLT-4 leukemia; 1.68 µM with NCI-H226 lung; 2.07 µM in the assay with NCI-H23 lung. Besides, the GI50 in the assay with RXF 393 renal was 0.566 µM; with SK-MEL-28 melanoma it was 3.11 µM; with T-47D breast, 0.0376 µM; in the assay with UO-31 renal, less than 0.0187 µM. The TGI with A498 renal is 2.22 µM; in the assay on CCRF-CEM leukemia, 15.7 µM; with LOX IMVI melanoma, 7.09 µM; in the assay with MOLT-4 leukemia it was 6.18 µM; with NCI-H226 lung, 7.28 µM; in the assay on NCI-H23 lung, 10.2 µM. Moreover, the TGI in the assay with RXF 393 renal came to 2.71 µM; with SK-MEL-28 melanoma, 15.3 µM; in the assay with T-47D breast, 1.11 µM; with UO-31 renal, 6.14 µM.
Consider `OCC1OC(n2cnc3c(NCc4ccccc4O)ncnc32)C(O)C1O` (centres undefined), for which the GI50 in the assay on A498 renal was 1.21 µM; in the assay on CCRF-CEM leukemia, 0.274 µM; with LOX IMVI melanoma it was 0.0695 µM; in the assay with MOLT-4 leukemia it was 0.596 µM; in the assay with NCI-H226 lung, 8.65 µM; in the assay with NCI-H23 lung it was 0.457 µM. The GI50 in the assay with RXF 393 renal is 4.62 µM; in the assay on SK-MEL-28 melanoma, 4.15 µM; with T-47D breast, 0.345 µM; in the assay on UO-31 renal, 0.717 µM. Besides, the TGI with A498 renal was 6.09 µM; in the assay with CCRF-CEM leukemia, 33.6 µM; in the assay with LOX IMVI melanoma it was 3.62 µM; in the assay with MOLT-4 leukemia, greater than 38 µM; in the assay on NCI-H226 lung it was 23.2 µM; with NCI-H23 lung it was 4.46 µM. The TGI is greater than 100 µM with RXF 393 renal, greater than 100 µM with SK-MEL-28 melanoma, 4.87 µM with T-47D breast and 13.8 µM in the assay with UO-31 renal.
On to `C/C(=N\NC(=S)N1CCN(c2ccccn2)CC1)c1cccc2cccnc12`, for which the TGI in the assay with A498 renal was 71.1 µM; in the assay with CCRF-CEM leukemia, greater than 42.8 µM; in the assay with LOX IMVI melanoma, greater than 100 µM; with MOLT-4 leukemia, greater than 62.2 µM; in the assay on NCI-H226 lung, 38.4 µM; in the assay on NCI-H23 lung it was greater than 100 µM. For the same compound, the TGI in the assay on RXF 393 renal is greater than 100 µM; with SK-MEL-28 melanoma, greater than 100 µM; in the assay on T-47D breast, greater than 87.6 µM; in the assay on UO-31 renal it was greater than 56.5 µM.
Regarding `Oc1ccc(/C=N/NC(=S)Nc2cccnc2)nc1`, the TGI in the assay with A498 renal is greater than 81.2 µM; in the assay on CCRF-CEM leukemia, 9.78 µM; in the assay on LOX IMVI melanoma, greater than 100 µM; with MOLT-4 leukemia, 15 µM; in the assay on NCI-H226 lung it was greater than 100 µM; in the assay on NCI-H23 lung, 61.9 µM. The TGI in the assay with RXF 393 renal was greater than 61.2 µM; with SK-MEL-28 melanoma, greater than 100 µM; in the assay on T-47D breast it was greater than 100 µM; in the assay on UO-31 renal, greater than 26.9 µM.
As for `Nc1cc(N)c2nc(-c3ccccc3)c(NCc3ccc(Cl)c(Cl)c3)nc2c1`, the GI50 with A498 renal is 17.4 µM; in the assay with CCRF-CEM leukemia, 0.133 µM; in the assay with MOLT-4 leukemia, 2.07 µM; with NCI-H226 lung, 22.6 µM; in the assay on NCI-H23 lung it was 14.2 µM; in the assay on RXF 393 renal, 3.06 µM. The GI50 with SK-MEL-28 melanoma was 18.8 µM; in the assay on T-47D breast, 19.4 µM; with UO-31 renal it was 4.17 µM. In addition, the TGI with A498 renal is 32.4 µM; in the assay with CCRF-CEM leukemia it was 1.83 µM; in the assay with MOLT-4 leukemia it was greater than 100 µM; in the assay with NCI-H226 lung it was 46.3 µM; in the assay with NCI-H23 lung it was 27.8 µM; in the assay with RXF 393 renal, 16.8 µM. The TGI in the assay on SK-MEL-28 melanoma was 41.7 µM; in the assay on T-47D breast, 54.4 µM; in the assay with UO-31 renal, greater than 100 µM.
In the case of `COc1ccc(NC(=O)c2cccc(C3CCc4c(cc(OC)c(OC)c4OC)O3)c2)cc1` (centres undefined), the GI50 with A498 renal is 1.37 µM; in the assay with CCRF-CEM leukemia, 1.6 µM; with LOX IMVI melanoma it was 3.94 µM; with NCI-H23 lung it was 4.56 µM; with SK-MEL-28 melanoma, 4.12 µM; in the assay on T-47D breast it was 2.49 µM. For the same compound, in the assay with UO-31 renal, the GI50 was 2.36 µM. For the same compound, the TGI was 5.7 µM in the assay with A498 renal; greater than 100 µM with CCRF-CEM leukemia; greater than 100 µM in the assay on LOX IMVI melanoma; greater than 100 µM in the assay with NCI-H23 lung; greater than 100 µM with SK-MEL-28 melanoma; 7.48 µM in the assay with T-47D breast. The TGI with UO-31 renal was greater than 100 µM.
As for `COc1ccc2nc3ccccc3c(NCc3ccccc3)c2c1`, the GI50 is 1.7 µM in the assay with A498 renal; 2.8 µM in the assay with CCRF-CEM leukemia; 1.61 µM with LOX IMVI melanoma; 2.76 µM in the assay with MOLT-4 leukemia; 2.79 µM in the assay with NCI-H226 lung; 1.95 µM in the assay with NCI-H23 lung. The GI50 was 1.53 µM in the assay on RXF 393 renal, 1.75 µM with SK-MEL-28 melanoma, 2.69 µM in the assay with T-47D breast and 1.54 µM in the assay with UO-31 renal. Besides, the TGI in the assay on A498 renal turned out to be 3.15 µM; with CCRF-CEM leukemia it was 11.7 µM; in the assay on LOX IMVI melanoma, 3.29 µM; in the assay with MOLT-4 leukemia it was 11.2 µM; in the assay on NCI-H226 lung it was 8.69 µM; in the assay with NCI-H23 lung, 5.52 µM. In addition, the TGI in the assay on RXF 393 renal was found to be 3.13 µM; with SK-MEL-28 melanoma, 3.57 µM; with T-47D breast it was 8.89 µM; with UO-31 renal, 5.34 µM.
Regarding `O=C(O)c1cc(Cl)cc(Cc2cc(Cl)cc(C(=O)O)c2O)c1O`, the TGI in the assay on A498 renal, in the assay with CCRF-CEM leukemia, in the assay with LOX IMVI melanoma, with MOLT-4 leukemia, with NCI-H23 lung and in the assay with RXF 393 renal was greater than 100 µM each time. In addition, the TGI with SK-MEL-28 melanoma, in the assay with T-47D breast and in the assay with UO-31 renal was greater than 100 µM each time.
In the case of `COc1cccc(-c2nn(-c3ccccc3)cc2-c2ccnc(NCCCNS(=O)(=O)c3ccc(C(F)(F)F)cc3)c2)c1`, the GI50 in the assay on A498 renal was 3.8 µM; with CCRF-CEM leukemia, 5.07 µM; in the assay on LOX IMVI melanoma, 4.86 µM; with NCI-H226 lung, 8.75 µM; with NCI-H23 lung, 4.86 µM; in the assay on RXF 393 renal, 3.01 µM. The results for the GI50 in the assay with SK-MEL-28 melanoma, in the assay with T-47D breast and in the assay with UO-31 renal were 9.1 µM, 2.54 µM and 2.9 µM, respectively. The TGI in the assay with A498 renal, in the assay on CCRF-CEM leukemia, in the assay on LOX IMVI melanoma, with NCI-H226 lung, in the assay with NCI-H23 lung and with RXF 393 renal was greater than 100 µM in each case. Moreover, the TGI in the assay with SK-MEL-28 melanoma is greater than 100 µM; in the assay with T-47D breast, 9.11 µM; in the assay with UO-31 renal it was greater than 100 µM.
